Consider five substances from patent publication JP2020514407A, “アポリポプロテイン模倣物を用いる加齢黄斑変性と他の眼疾患の治療” (MacRegen Inc, priority 2017, dated 2018).

The test system of series [1] is neutral lipid in and on Bruch's membrane [ブルッフ膜内及びブルッフ膜上の中性脂質]. The experiment in a line: Oil red O (ORO) staining of neutral lipid in and on Bruch's membrane, aged macaques with naturally occurring age-related maculopathy. The settings on record: injected eye; 6 monthly intravitreal injections, total 625 μg; after 6 months; vs scrambled L-4F. It is filed as in vivo, cynomolgus macaque (Macaca fascicularis).

The subject of series [2] is high-sensitivity C-reactive protein (hsCRP) [高感度C−反応性タンパク質(hsCRP)]. The experiment in a line: Blood level of high-sensitivity C-reactive protein, aged macaques. It is filed as in vivo, cynomolgus macaque (Macaca fascicularis). The conditions noted are these: 6 monthly intravitreal injections.
The nature of series [3]: Tolerability and adverse events of intravitreal injection, aged macaques. It is filed as in vivo, cynomolgus macaque (Macaca fascicularis). The settings on record: all macaques; 6 monthly intravitreal injections.
Series [4] has as its system esterified cholesterol in Bruch's membrane [ブルッフ膜内のエステル型コレステロール]. The experiment in a line: Filipin fluorescence of esterified cholesterol in Bruch's membrane, aged macaques. It counts as in vivo, cynomolgus macaque (Macaca fascicularis). The conditions noted are these: injected eye; 6 monthly intravitreal injections, total 625 μg; vs scrambled L-4F.
Series [5] concerns membrane attack complex (MAC, C5b-9) [膜侵襲複合体(MAC、C5b−9)]. Put plainly: Immunohistochemistry of membrane attack complex in Bruch's membrane and choriocapillaris, aged macaques. It is filed as in vivo, cynomolgus macaque (Macaca fascicularis). The conditions noted are these: injected eye; 6 monthly intravitreal injections, total 625 μg; vs scrambled L-4F.
The test system of series [6] is complement factor D (CFD) [補体因子D(CFD)]. The experiment in a line: Immunohistochemistry of complement factor D, aged macaques. The settings on record: injected eye; 6 monthly intravitreal injections, total 625 μg; vs scrambled L-4F. It counts as in vivo, cynomolgus macaque (Macaca fascicularis).
The next series deals with Bruch's membrane [ブルッフ膜]. Put plainly: Bruch's membrane thickness and integrity by electron microscopy, aged macaques. It counts as in vivo, cynomolgus macaque (Macaca fascicularis).
The test system of series [7] is fellow non-injected eye [もう片方の非注射側の眼]. Put plainly: Effect in the fellow non-injected eye (staining and thickness, figures 2 to 6), aged macaques. It counts as in vivo, cynomolgus macaque (Macaca fascicularis). The conditions noted are these: after 6 monthly intravitreal injections (figures 2 to 6).
For series [8] the following is noted: estimated; cited from earlier work.
The subject of series [9] is geographic atrophy [地図状萎縮]. The settings on record: 10 mg intravitreal once a month, 18 months, cited from earlier work.

Take “Ac−DWFKAFYDKVAEKFKEAF−NH2 (Ac-DWFKAFYDKVAEKFKEAF-NH2) [L−4F]”: the “reduction of lipid deposits from Bruch's membrane (oil red O staining) compared with placebo-injected eyes” value in series [1] is on record as approximately 56%. Also, the “change in hsCRP blood level compared with the day before the first injection” value in [2] is “hsCRPの血中レベルを増加させなかった”. Moreover, the tolerability entry in [3] was “十分耐性があり”. In addition, in series [4], the “reduction of esterified cholesterol in Bruch's membrane (filipin fluorescence, semiquantitative) compared with placebo-injected eyes” value is given as approximately 68%. In series [5], the “reduction of MAC (C5b-9) level in Bruch's membrane and choriocapillaris compared with eyes injected with scrambled peptide” value is listed as approximately 58%. Besides, in series [6], the “reduction of complement factor D level compared with eyes injected with scrambled peptide” value is reported as approximately 41%. In addition, the “thickness of Bruch's membrane” value with Bruch's membrane [ブルッフ膜] (L-4F-injected eye, temporal outer macula, post mortem, printed 1.31μm±SE0.11, placebo (scrambled L-4F) 1.73μm±SE0.02) was determined as 1.31 μm. For the same substance, the “Bruch's membrane integrity” value in the series with Bruch's membrane [ブルッフ膜] (after removal of lipid deposits, confirmed by electron microscopy) was “BrMの完全性が回復し”. Also, in the series on Bruch's membrane [ブルッフ膜] (injected eye, temporal outer macula, vs scrambled L-4F), the “reduction of Bruch's membrane thickness compared with placebo-injected eyes” value was approximately 24%. The “effect on the fellow non-injected eye relative to the injected eye” value in series [7] is on record as “同様の効果を有していた”.
Take “アフリベルセプト: soluble fusion protein comprising extracellular domains of VEGFR”: in [8], the intravitreal half-life was approximately 9.0 days.
In the case of ベバシズマブ: anti-VEGF antibody or fragment, the intravitreal half-life in series [8] is approximately 9.8 days.
Regarding ラニビズマブ: anti-VEGF antibody or fragment, the intravitreal half-life in series [8] was approximately 7.1 days.
Consider “ランパリズマブ: antigen-binding fragment (Fab) of a humanized monoclonal antibody targeting complement factor D”, for which the “reduction of geographic atrophy area, CFI biomarker-positive subgroup” value in [9] (CFI biomarker-positive patients) is on record as approximately 44%. For the same substance, in [9] (one eye), the “reduction of geographic atrophy area in the injected eye compared with placebo patients” value is listed as approximately 20%.
